Experimental data as given in patent US20160289186A1, “FLUOROMETHYL-SUBSTITUTED PYRROLE CA[…]” (Grunenthal GmbH, priority 2013, published 2016).

What follows are compounds tested against T1, Human CaV2.2 channels (Homo sapiens, UniProt Q00975) (assay: Fluorescent (FLIPR) assay for CaV2.2 channels using potassium depolarization to induce channel opening). Details: 3 μM compound; 30 mM KCl assay buffer (inactivated channel state); HEK293 cells stably expressing human CaV2.2; read-out: Activity Category: %-Inhib (CaV2.2) @3 μM @30 mM KCl.
T1 construct: expressed in transfected cells; host or cells: HEK293
T1 sequence (Q00975 whole entry): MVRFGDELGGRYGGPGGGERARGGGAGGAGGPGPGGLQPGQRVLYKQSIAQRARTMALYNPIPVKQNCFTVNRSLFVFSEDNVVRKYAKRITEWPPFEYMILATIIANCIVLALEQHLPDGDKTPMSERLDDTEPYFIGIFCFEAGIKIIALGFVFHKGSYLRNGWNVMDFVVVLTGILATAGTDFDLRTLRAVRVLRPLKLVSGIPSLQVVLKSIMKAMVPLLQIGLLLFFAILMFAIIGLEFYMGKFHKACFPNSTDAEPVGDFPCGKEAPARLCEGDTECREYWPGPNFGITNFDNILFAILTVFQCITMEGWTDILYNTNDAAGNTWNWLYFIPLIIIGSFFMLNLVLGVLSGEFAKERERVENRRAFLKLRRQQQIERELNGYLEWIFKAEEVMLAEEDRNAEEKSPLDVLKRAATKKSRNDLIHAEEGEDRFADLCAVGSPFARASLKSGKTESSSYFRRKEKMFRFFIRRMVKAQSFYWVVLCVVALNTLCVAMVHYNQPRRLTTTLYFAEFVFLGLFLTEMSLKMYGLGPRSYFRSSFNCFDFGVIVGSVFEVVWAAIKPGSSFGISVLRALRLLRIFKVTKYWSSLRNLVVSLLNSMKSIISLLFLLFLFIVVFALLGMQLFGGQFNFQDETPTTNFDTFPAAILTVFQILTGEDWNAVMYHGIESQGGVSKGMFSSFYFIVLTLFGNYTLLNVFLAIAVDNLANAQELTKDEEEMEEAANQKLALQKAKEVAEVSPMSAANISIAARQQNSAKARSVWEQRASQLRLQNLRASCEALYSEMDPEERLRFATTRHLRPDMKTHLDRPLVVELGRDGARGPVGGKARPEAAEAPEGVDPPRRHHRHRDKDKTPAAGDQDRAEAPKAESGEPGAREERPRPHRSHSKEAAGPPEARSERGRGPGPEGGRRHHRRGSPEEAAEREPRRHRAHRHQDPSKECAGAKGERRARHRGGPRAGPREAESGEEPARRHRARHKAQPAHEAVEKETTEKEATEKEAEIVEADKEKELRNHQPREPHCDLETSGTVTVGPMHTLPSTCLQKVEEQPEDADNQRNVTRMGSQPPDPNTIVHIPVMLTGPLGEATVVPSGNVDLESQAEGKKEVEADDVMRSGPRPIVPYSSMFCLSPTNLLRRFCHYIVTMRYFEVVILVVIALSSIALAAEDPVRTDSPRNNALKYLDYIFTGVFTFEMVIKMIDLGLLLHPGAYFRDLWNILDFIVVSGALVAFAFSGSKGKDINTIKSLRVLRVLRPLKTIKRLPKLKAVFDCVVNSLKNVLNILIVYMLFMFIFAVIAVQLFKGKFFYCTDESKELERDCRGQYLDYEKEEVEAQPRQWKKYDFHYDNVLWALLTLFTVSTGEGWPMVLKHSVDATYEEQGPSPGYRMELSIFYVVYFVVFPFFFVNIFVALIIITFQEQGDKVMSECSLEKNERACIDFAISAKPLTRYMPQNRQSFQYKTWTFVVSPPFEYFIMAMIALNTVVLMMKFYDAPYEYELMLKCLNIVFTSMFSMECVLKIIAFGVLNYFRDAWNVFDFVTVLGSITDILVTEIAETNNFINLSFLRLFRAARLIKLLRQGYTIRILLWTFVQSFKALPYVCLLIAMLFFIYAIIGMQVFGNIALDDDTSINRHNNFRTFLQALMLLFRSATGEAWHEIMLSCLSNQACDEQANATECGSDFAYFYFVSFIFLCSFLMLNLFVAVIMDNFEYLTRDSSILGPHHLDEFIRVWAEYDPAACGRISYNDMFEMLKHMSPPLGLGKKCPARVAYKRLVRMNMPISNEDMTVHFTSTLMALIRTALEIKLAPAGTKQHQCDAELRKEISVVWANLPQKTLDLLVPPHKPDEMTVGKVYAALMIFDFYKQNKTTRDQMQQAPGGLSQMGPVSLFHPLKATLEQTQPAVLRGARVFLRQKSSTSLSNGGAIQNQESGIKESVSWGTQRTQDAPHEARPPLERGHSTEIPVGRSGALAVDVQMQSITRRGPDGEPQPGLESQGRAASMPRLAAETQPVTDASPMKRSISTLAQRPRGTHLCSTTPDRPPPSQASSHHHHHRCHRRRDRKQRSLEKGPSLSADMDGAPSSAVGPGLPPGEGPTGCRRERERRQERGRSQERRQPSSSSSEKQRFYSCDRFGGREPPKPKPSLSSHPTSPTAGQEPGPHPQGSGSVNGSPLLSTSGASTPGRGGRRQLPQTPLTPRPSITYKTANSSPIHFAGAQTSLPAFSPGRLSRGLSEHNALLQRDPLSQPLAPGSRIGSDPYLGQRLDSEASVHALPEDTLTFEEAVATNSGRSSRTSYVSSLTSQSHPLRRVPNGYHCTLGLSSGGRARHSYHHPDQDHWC
T1 sequence (P54284 whole entry, further chain): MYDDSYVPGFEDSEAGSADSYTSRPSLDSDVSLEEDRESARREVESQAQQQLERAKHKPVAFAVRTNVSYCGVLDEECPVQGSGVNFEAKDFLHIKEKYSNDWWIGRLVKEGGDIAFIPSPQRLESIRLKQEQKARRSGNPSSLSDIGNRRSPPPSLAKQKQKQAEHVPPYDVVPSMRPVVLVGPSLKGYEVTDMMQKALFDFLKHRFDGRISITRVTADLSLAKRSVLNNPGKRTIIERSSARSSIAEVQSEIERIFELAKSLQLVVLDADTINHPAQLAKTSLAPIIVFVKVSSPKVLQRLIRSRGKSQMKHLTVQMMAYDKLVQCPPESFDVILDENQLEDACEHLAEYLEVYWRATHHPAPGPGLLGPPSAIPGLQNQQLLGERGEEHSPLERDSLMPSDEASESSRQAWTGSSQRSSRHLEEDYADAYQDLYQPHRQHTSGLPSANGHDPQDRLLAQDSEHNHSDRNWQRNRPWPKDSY
T1 sequence (P54289 25-1103, further chain): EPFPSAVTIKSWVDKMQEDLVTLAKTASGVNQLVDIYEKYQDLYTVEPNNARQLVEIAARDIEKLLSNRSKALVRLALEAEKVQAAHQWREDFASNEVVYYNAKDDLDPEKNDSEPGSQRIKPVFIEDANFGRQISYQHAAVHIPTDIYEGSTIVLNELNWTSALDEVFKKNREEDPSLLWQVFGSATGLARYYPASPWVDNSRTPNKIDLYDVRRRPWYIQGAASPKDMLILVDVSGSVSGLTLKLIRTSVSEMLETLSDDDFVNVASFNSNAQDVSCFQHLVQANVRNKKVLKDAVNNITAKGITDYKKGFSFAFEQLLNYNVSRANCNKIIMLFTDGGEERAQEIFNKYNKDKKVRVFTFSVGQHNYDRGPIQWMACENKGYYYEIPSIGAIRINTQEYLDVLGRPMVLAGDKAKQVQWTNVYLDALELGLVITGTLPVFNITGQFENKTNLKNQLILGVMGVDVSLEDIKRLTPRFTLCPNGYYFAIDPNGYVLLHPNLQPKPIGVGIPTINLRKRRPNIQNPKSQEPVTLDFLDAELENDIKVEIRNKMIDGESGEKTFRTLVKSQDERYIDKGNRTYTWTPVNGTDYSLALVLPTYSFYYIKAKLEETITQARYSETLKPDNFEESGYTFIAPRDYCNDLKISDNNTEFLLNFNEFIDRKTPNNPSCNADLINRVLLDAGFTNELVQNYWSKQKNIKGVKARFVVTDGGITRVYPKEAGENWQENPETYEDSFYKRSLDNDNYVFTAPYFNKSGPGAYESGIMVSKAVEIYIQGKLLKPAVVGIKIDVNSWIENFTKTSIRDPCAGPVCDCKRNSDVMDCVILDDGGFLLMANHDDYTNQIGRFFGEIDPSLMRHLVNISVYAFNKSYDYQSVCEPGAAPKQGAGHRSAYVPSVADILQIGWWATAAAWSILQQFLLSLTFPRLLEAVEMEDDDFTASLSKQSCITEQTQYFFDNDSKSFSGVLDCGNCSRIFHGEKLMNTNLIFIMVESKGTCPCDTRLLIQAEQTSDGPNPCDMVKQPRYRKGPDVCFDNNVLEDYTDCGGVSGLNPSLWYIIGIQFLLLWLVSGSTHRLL
Assay type: cell-based
Procedure, shortened: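 HEK293 cells stably co-expressing human CaV2.2 with α2δ and β subunits plus Kir2.3, Fluo-4 loaded; compounds preincubated 15 min at 25 °C in 1 mM or 30 mM KCl buffer (inactivated state), pH 7.4. Depolarized by KCl addition; baseline-normalized peak fluorescence (ex 480/em 535 nm) gave inhibition.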

First: Cc1cc(CN(C)C(=O)c2c(-c3ccc(Cl)cc3F)c(C)c(C(F)(F)F)n2C2CC2)no1 [Example 020, 3-(4-Chloro-2-fluoro-phenyl)-1-cyclopropyl-N,4-dimethyl-N-[(5-methyl-isoxazol-3-yl)-methyl]-5-(trifluoromethyl)-1H-pyrrole-2-carboxylic acid amide]
Second: COc1ccc(CN(C)C(=O)c2c(-c3ccc(Cl)cc3)c(C)c(C(F)(F)F)n2C2CC2)cc1 [Example 010, 3-(4-Chlorophenyl)-1-cyclopropyl-N-[(4-methoxyphenyl)-methyl]-N,4-dimethyl-5-(trifluoromethyl)-1H-pyrrole-2-carboxylic acid amide]
The inhibition at 3 µM of the first is higher: over 95% for the first, 75 to 95% for the second.

`CN(CCS(C)(=O)=O)C(=O)c1c(-c2ccc(Cl)cc2)cc(C(F)(F)F)n1C1CC1` [Example 037, 3-(4-Chlorophenyl)-1-cyclopropyl-N-methyl-N-(2-methylsulfonyl-ethyl)-5-(trifluoromethyl)-1H-pyrrole-2-carboxylic acid amide] and `CN(CCS(C)(=O)=O)C(=O)c1c(-c2ccc(F)cc2)cc(C(F)(F)F)n1CC1CCCO1` (stereo not drawn) [Example 078, 3-(4-Fluorophenyl)-N-methyl-N-(2-methylsulfonyl-ethyl)-1-(tetrahydro-furan-2-yl-methyl)-5-(trifluoromethyl)-1H-pyrrole-2-carboxylic acid amide] fall in the same range of inhibition at 3 µM: 40 to 75% for the first, 40 to 75% for the second.

`Cc1c(-c2ccc(Cl)cc2)c(C(=O)N(C)CCS(C)(=O)=O)n(CC2(C)CC2)c1C(F)(F)F` [Example 068, 3-(4-Chlorophenyl)-N,4-dimethyl-1-[(1-methyl-cyclopropyl)-methyl]-N-(2-methylsulfonyl-ethyl)-5-(trifluoromethyl)-1H-pyrrole-2-carboxylic acid amide] and `Cc1c(-c2ccc(Cl)cc2)c(C(=O)N(C)C2(C(N)=O)CC2)n(CC(C)C)c1C(F)(F)F` [Example 051, N-(1-Carbamoyl-cyclopropyl)-3-(4-chlorophenyl)-N,4-dimethyl-1-(2-methyl-propyl)-5-(trifluoromethyl)-1H-pyrrole-2-carboxylic acid amide] cannot be ordered by inhibition at 3 µM: over 95% for the first, over 95% for the second.

First: Cc1c(-c2ccc(Cl)cc2)c(C(=O)N2CCOCC2)n(CC2(O)CCCC2)c1C(F)(F)F [Example 096, [3-(4-Chlorophenyl)-1-[(1-hydroxy-cyclopentyl)-methyl]-4-methyl-5-(trifluoromethyl)-1H-pyrrol-2-yl]-morpholin-4-yl-methanone]
Second: Cc1c(-c2ccc(Cl)cc2)c(C(=O)N2CCOCC2)n(CC2(O)CC2)c1C(F)(F)F [Example 089, [3-(4-Chlorophenyl)-1-[(1-hydroxy-cyclopropyl)-methyl]-4-methyl-5-(trifluoromethyl)-1H-pyrrol-2-yl]-morpholin-4-yl-methanone]
The inhibition at 3 µM of the first is lower: 75 to 95% for the first, over 95% for the second.

Compared with `Cc1cc(CN(C)C(=O)c2c(-c3ccc(F)cc3)cc(C(F)(F)F)n2CC(C)C)no1` [Example 047, 3-(4-Fluorophenyl)-N-methyl-N-[(5-methyl-isoxazol-3-yl)-methyl]-1-(2-methyl-propyl)-5-(trifluoromethyl)-1H-pyrrole-2-carboxylic acid amide], `CC(C)Cn1c(C(F)(F)F)cc(-c2ccc(F)cc2)c1C(=O)N(C)CCS(C)(=O)=O` [Example 050, 3-(4-Fluorophenyl)-N-methyl-1-(2-methyl-propyl)-N-(2-methylsulfonyl-ethyl)-5-(trifluoromethyl)-1H-pyrrole-2-carboxylic acid amide] is lower in inhibition at 3 µM: over 95% for the first, 75 to 95% for the second.

First: Cc1c(-c2ccc(Cl)cc2)c(C(=O)N(C)C(C)C)n(CC(C)C)c1C(F)(F)F [Example 109, 3-(4-Chlorophenyl)-N-isopropyl-N,4-dimethyl-1-(2-methyl-propyl)-5-(trifluoromethyl)-1H-pyrrole-2-carboxylic acid amide]
Second: Cc1c(-c2ccc(Cl)cc2)c(C(=O)N(C)Cc2ccncn2)n(CC(C)C)c1C(F)(F)F [Example 048, 3-(4-Chlorophenyl)-N,4-dimethyl-1-(2-methyl-propyl)-N-(pyrimidin-4-yl-methyl)-5-(trifluoromethyl)-1H-pyrrole-2-carboxylic acid amide]
The inhibition at 3 µM of the first is lower: 75 to 95% for the first, over 95% for the second.

Compared with `Cc1c(-c2ccc(Cl)cc2)c(C(=O)N(C)CC(C)(C)CN2CCOCC2)n(C2CC2)c1C(F)(F)F` [Example 016, 3-(4-Chlorophenyl)-1-cyclopropyl-N-(2,2-dimethyl-3-morpholin-4-yl-propyl)-N,4-dimethyl-5-(trifluoromethyl)-1H-pyrrole-2-carboxylic acid amide], `Cc1c(-c2ccc(Cl)cc2)c(C(=O)N(C)C2CC2)n(C2CC2)c1C(F)(F)F` [Example 012, 3-(4-Chlorophenyl)-N,1-dicyclopropyl-N,4-dimethyl-5-(trifluoromethyl)-1H-pyrrole-2-carboxylic acid amide] is lower in inhibition at 3 µM: over 95% for the first, 75 to 95% for the second.

`Cc1cnc(CN(C)C(=O)c2c(-c3ccc(F)cc3)cc(C(F)(F)F)n2CC2CCCO2)cn1` (stereo not drawn) [Example 077, 3-(4-Fluorophenyl)-N-methyl-N-[(5-methyl-pyrazin-2-yl)-methyl]-1-(tetrahydro-furan-2-yl-methyl)-5-(trifluoromethyl)-1H-pyrrole-2-carboxylic acid amide] and `CN(CC(C)(C)C)C(=O)c1c(-c2ccc(Cl)cc2)cc(C(F)(F)F)n1CC1CCCO1` (stereo not drawn) [Example 083, 3-(4-Chlorophenyl)-N-(2,2-dimethyl-propyl)-N-methyl-1-(tetrahydro-furan-2-yl-methyl)-5-(trifluoromethyl)-1H-pyrrole-2-carboxylic acid amide] fall in the same range of inhibition at 3 µM: 75 to 95% for the first, 75 to 95% for the second.

`Cc1c(-c2ccc(Cl)cn2)c(C(=O)N(C)CC(C)(C)C(N)=O)n(C(C)C)c1C(F)(F)F` [Example 116, N-(2-Carbamoyl-2-methyl-propyl)-3-(5-chloro-pyridin-2-yl)-1-isopropyl-N,4-dimethyl-5-(trifluoromethyl)-1H-pyrrole-2-carboxylic acid amide] and `Cc1c(-c2ncc(Cl)cn2)c(C(=O)N(C)CC(C)(C)C#N)n(C(C)C)c1C(F)(F)F` [Example 126, 3-(5-Chloro-pyrimidin-2-yl)-N-(2-cyano-2-methyl-propyl)-1-isopropyl-N,4-dimethyl-5-(trifluoromethyl)-1H-pyrrole-2-carboxylic acid amide] fall in the same range of inhibition at 3 µM: 40 to 75% for the first, 40 to 75% for the second.

First: CC(C)Cn1c(C(F)(F)F)cc(-c2ccc(F)cc2)c1C(=O)N(C)C1CCOCC1 [Example 046, 3-(4-Fluorophenyl)-N-methyl-1-(2-methyl-propyl)-N-tetrahydro-pyran-4-yl-5-(trifluoromethyl)-1H-pyrrole-2-carboxylic acid amide]
Second: Cc1c(-c2ccc(Cl)cc2)c(C(=O)N(C)C2(C(N)=O)CC2)n(C2CC2)c1C(F)(F)F [Example 007, N-(1-Carbamoyl-cyclopropyl)-3-(4-chlorophenyl)-1-cyclopropyl-N,4-dimethyl-5-(trifluoromethyl)-1H-pyrrole-2-carboxylic acid amide]
The inhibition at 3 µM of the first is higher: over 95% for the first, 40 to 75% for the second.

Compound `Cc1c(-c2ccc(Cl)cc2)c(C(=O)N2CCOC(C)(C)C2)n(C)c1C(F)(F)F` [Example 102, [3-(4-Chlorophenyl)-1,4-dimethyl-5-(trifluoromethyl)-1H-pyrrol-2-yl]-(2,2-dimethyl-morpholin-4-yl)-methanone] has an inhibition at 3 µM of 75 to 95%.
